The values below come from patent US8759342B2, “Benzo[1,4]oxazin-3-one, benzo[1,4]thiazin-3-one and quinolin-2-one urotensin II receptor antagonists” (Janssen Pharmaceutica NV, priority 2006, dated 2014).

The assay has as its target T1, rat GPR14 (U-II receptor) (Rattus norvegicus, UniProt P49684).
T1 construct: expressed in transfected cells
T1 sequence (P49684 1-386): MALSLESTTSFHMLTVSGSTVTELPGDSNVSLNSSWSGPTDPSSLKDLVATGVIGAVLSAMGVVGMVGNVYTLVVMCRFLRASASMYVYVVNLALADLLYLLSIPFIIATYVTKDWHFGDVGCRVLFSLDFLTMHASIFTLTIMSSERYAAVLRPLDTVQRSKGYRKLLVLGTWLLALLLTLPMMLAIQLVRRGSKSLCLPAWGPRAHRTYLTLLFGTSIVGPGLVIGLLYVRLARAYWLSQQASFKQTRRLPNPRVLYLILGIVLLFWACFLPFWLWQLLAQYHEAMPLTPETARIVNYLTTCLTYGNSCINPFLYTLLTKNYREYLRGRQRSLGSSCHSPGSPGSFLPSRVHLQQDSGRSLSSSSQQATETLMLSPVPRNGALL
Description: Calcium flux assay (FLIPR). The format is cell-based. The conditions noted are these: Inhibition of acetyl-cyclic[Cys-Phe-Trp-Lys-(2-Nal)-Cys]-NH2 (1 nM) induced Ca2+ mobilization (FLIPR) in CHO cells transfected with rat UII receptor; 5 min incubation. The source says: To derive these cells, the complete coding sequence of rat […] was amplified by nested PCR from rat heart marathon-Ready cDNA. […] The PCR products were cloned into pcDNA3 (Invitrogen) digested with EcoR I and Xba I. Clones containing rat U-II receptor were verified by complete sequencing of the U-II receptor insert to ensure a lack of PCR-introduced errors. The constructed vector was transfected into CHO cells by using lipofectamine (GIBCO BRL). CHO cells with high expression of rat U-II receptor were selected and established as stable cell lines by using G418. CHO cells were seeded at 25,000 cells per well into 96-well, black-wall, clear-bottom microtiter plates 24 hrs before assay. Cells in culture media (DMEM/F12 containing 15 mM HEPES, L-glutamine, pyridoxine hydrochloride; 10% fetal bovine serum; 1 mg/mL G418 sulfate; antibiotic-antimycotic; pH 7.4) were loaded with proprietary dye, from the FLIPR Calcium Assay Kit (Molecular Devices), prepared in assay buffer (Hanks Balanced Salts Solution, 20 mM HEPES, 0.1% BSA, 2.5 mM probenecid, pH 7.4), and incubated for 1 hr at 37° C. Calcium mobilization determinations were performed at room temperature (23° C.).
Background: A change in cytosolic calcium serves as a functional read-out for many receptors and channels.

The term IC50 denotes the concentration that inhibits the measured activity by half. On to `O=C(NCCCO)c1ccccc1C1CCN(CCN2C(=O)COc3ccccc32)CC1` [Cpd 39, N-(3-hydroxy-propyl)-2-{1-[2-(3-oxo-2,3-dihydro-benzo[1,4]oxazin-4-yl)-ethyl]-piperidin-4-yl}-benzamide], for which the half-maximal inhibitory concentration (IC50) was determined as 32 µM. For the compound `O=C(NCCc1ccc(C(F)(F)F)cc1)c1ccccc1C1CCN(CCN2C(=O)COc3ccccc32)CC1` [Cpd 40, 2-{1-[2-(3-oxo-2,3-dihydro-benzo[1,4]oxazin-4-yl)-ethyl]-piperidin-4-yl}-N-[2-(4-trifluoromethyl-phenyl)-ethyl]-benzamide], the 50% inhibitory concentration (IC50) amounted to 4 µM. `O=C(NCc1ccccn1)c1ccccc1C1CCN(CCN2C(=O)COc3ccccc32)CC1` [Cpd 41, 2-{1-[2-(3-oxo-2,3-dihydro-benzo[1,4]oxazin-4-yl)-ethyl]-piperidin-4-yl}-N-pyridin-2-ylmethyl-benzamide]: the IC50 was found to be 21 µM. Next, `O=C(NCCc1ccccn1)c1ccccc1C1CCN(CCN2C(=O)COc3ccccc32)CC1` [Cpd 42, 2-{1-[2-(3-oxo-2,3-dihydro-benzo[1,4]oxazin-4-yl)-ethyl]-piperidin-4-yl}-N-(2-pyridin-2-yl-ethyl)-benzamide]: 20 µM; `O=C(NCc1cccnc1)c1ccccc1C1CCN(CCN2C(=O)COc3ccccc32)CC1` [Cpd 43, 2-{1-[2-(3-oxo-2,3-dihydro-benzo[1,4]oxazin-4-yl)-ethyl]-piperidin-4-yl}-N-pyridin-3-ylmethyl-benzamide]: 18 µM. Next, `O=C(NCc1ccncc1)c1ccccc1C1CCN(CCN2C(=O)COc3ccccc32)CC1` [Cpd 44, 2-{1-[2-(3-oxo-2,3-dihydro-benzo[1,4]oxazin-4-yl)-ethyl]-piperidin-4-yl}-N-pyridin-4-ylmethyl-benzamide]: 21 µM. The result for `O=C(NCCc1ccncc1)c1ccccc1C1CCN(CCN2C(=O)COc3ccccc32)CC1` [Cpd 45, 2-{1-[2-(3-oxo-2,3-dihydro-benzo[1,4]oxazin-4-yl)-ethyl]-piperidin-4-yl}-N-(2-pyridin-4-yl-ethyl)-benzamide] reads 16 µM. Regarding `O=C(NCc1cccs1)c1ccccc1C1CCN(CCN2C(=O)COc3ccccc32)CC1` [Cpd 46, 2-{1-[2-(3-oxo-2,3-dihydro-benzo[1,4]oxazin-4-yl)-ethyl]-piperidin-4-yl}-N-thiophen-2-ylmethyl-benzamide], the IC50 is 6 µM. The result for `O=C(NCCc1cccs1)c1ccccc1C1CCN(CCN2C(=O)COc3ccccc32)CC1` [Cpd 47, 2-{1-[2-(3-oxo-2,3-dihydro-benzo[1,4]oxazin-4-yl)-ethyl]-piperidin-4-yl}-N-(2-thiophen-2-yl-ethyl)-benzamide] reads 7 µM.

Take `O=C(NCCCn1ccnc1)c1ccccc1C1CCN(CCN2C(=O)COc3ccccc32)CC1` [Cpd 48, N-(3-imidazol-1-yl-propyl)-2-{1-[2-(3-oxo-2,3-dihydro-benzo[1,4]oxazin-4-yl)-ethyl]-piperidin-4-yl}-benzamide]: the IC50 was determined as 43 µM. On to `CC(=O)NCCNC(=O)c1ccccc1C1CCN(CCN2C(=O)COc3ccccc32)CC1` [Cpd 49, N-(2-acetylamino-ethyl)-2-{1-[2-(3-oxo-2,3-dihydro-benzo[1,4]oxazin-4-yl)-ethyl]-piperidin-4-yl}-benzamide], for which the IC50 turned out to be 38 µM. The result for `O=C(NCCCN1CCCC1=O)c1ccccc1C1CCN(CCN2C(=O)COc3ccccc32)CC1` [Cpd 51, 2-{1-[2-(3-oxo-2,3-dihydro-benzo[1,4]oxazin-4-yl)-ethyl]-piperidin-4-yl}-N-[3-(2-oxo-pyrrolidin-1-yl)-propyl]-benzamide] reads 22 µM. The result for `O=C(NCCN1CCCCC1)c1ccccc1C1CCN(CCN2C(=O)COc3ccccc32)CC1` [Cpd 52, 2-{1-[2-(3-oxo-2,3-dihydro-benzo[1,4]oxazin-4-yl)-ethyl]-piperidin-4-yl}-N-(2-piperidin-1-yl-ethyl)-benzamide] reads 16 µM.
